Assay results taken from US12350269B2 (Alexion Pharmaceuticals, Inc., priority 2015, dated 2025).

Experiments:
Experiment in all cases: DLBCL cell line viability, CellTiter Glo
Format in all cases: cell-based
Conditions in all cases: read-out: IC50 of Kinase Inhibitor in CellTiter Glo Assay
[1] = test system: LY18
Experimental: (§1) Each IC50 value is an average of at least four replicate experiments. Subsequent analysis using a FACS based caspase 3 cleavage detection kit (BD Biosciences) and Edu incorporation were performed.

[2] = test system: VAL
Experimental: as §1

[3] = test system: DHL6
Experimental: as §1

[4] = test system: LY10
Experimental: as §1

[5] = test system: DHL5
Experimental: as §1

[6] = test system: U2932
Experimental: as §1

[7] = test system: LY1
Experimental: as §1

[8] = test system: DHL10
Experimental: as §1

[9] = test system: LY7
Experimental: as §1

[10] = test system: DHL8
Experimental: as §1

[11] = test system: DLCL2
Experimental: as §1

[12] = test system: DB
Experimental: as §1

[13] = test system: TOLEDO
Experimental: as §1

[14] = test system: RCK8
Experimental: as §1

Work on `CC(C)(C)c1nc2c3cc[nH]c(=O)c3c3cc(F)ccc3c2[nH]1` [Pan-Jak] yielded an IC50 [1] of 0.8 µM, an IC50 [2] of 5.2 µM and an IC50 [3] of 2.63 µM. The IC50 [4] was 5.1 µM, the IC50 [5] was 39 µM and the IC50 [6] was 3.9 µM. It also gave an IC50 [7] of 0.7 µM, an IC50 [8] of 40 µM and an IC50 [9] of 34 µM. The IC50 [10] was 28 µM, the IC50 [11] was 42 µM and the IC50 [12] was 21.4 µM. It also gave an IC50 [13] of 5.9 µM and an IC50 [14] of 43 µM.
